Laboratory results taken from patent US9387170B2, “Drug having regulatory cell ligand contained in liposome” (RIKEN, priority 2004, dated 2016).

What was measured:
antibody production [1] = assay: In vivo antibody production system using IL-10-deficient mice; design: species or system IL-10-deficient mice with C57BL/6 background; conditions: 2 μg/mouse intraperitoneal 3 days before immunization, day 14
Procedure: Saline, α-GalCer, Lipo-(−) or Lipo-αGC (2 μg/mouse) was intraperitoneally administered in C57BL/6 mice (5 mice/group), after 3 days, which were primarily immunized with DNP-OVA and alum. On the 14th day after the primary immunization, the blood was collected from the orbital venous plexus, and antibody titers of ant-DNP-IgG1, anti-DNP-IgE and anti-DNP-IgG2a in the plasma were measured by ELISA. […] The same experiment was performed using the IL-10-deficient mice with C57BL/6 background.

IgE antibody production [2] = conditions: same experiment, mice deleting the Vα14-NKT cells; cited from earlier work
[3] = tested on: spleen whole cells from Vα14-NKT cell-deficient mouse; assay: Cytokine production in spleen whole cells from Vα14-NKT cell-deficient mouse; type: cell-based, Vα14-NKT cell-deficient mouse (C57BL/6 background); conditions: 100 ng/mL, 2 days
Procedure: (§1) Spleen whole cells at 2×10^5 from C57BL/6 mouse were suspended in 200 μL of 10% fetal calf serum (FCS)-containing RPMI medium to which 100 ng/mL Lipo-(−), Lipo-αGC or α-galactosyl ceramide aqueous solution (α-GalCer) had been added, then the cell suspension was added to a 96-well U bottom culture plate, and cultured in the incubator containing 5% CO2 at 37° C. for 2 days. The levels of IFN-γ, IL-4 and IL-10 produced in the culture supernatant were measured by ELISA (FIG. 7 upper panels). The levels of IFN-γ and IL-4 were equivalent in Lipo-αGC group and αGalCer group, but the level of IL-10 in the Lipo-α group was 5 times higher than that in the α-GalCer group. When the same experiments were performed in the presence of anti-CD1d neutralization antibody (1B1, BD Bioscience PharMingen) at a final concentration of 10 μg/mL or using spleen whole cells from Vα14-NKT cell-deficient mouse (C57BL/6 background), IFN-γ, IL-4 and IL-10 in the culture supernatant were not detected (FIG. 7, lower panels).

antibody production [4] = assay: In vivo antibody production system using BDF1 mice; conditions: 2 μg/mouse intraperitoneal, days 0, 14, 55 and 64
Procedure: Saline, α-GalCer, Lipo-(−) or Lipo-αGC (2 μg/mouse) was intraperitoneally administered in BDF1 mice (C57BL/6×DBA/2F1) (5 mice/group), after 3 days (day 0), which were primarily immunized with DNP-OVA and alum, and further the mice was boosted with DNP-OVA alone on the 55th day (day 55) after the primary immunization. On days 0, 14, 55 and 64, the blood was collected from the orbital venous plexus, and antibody titers of ant-DNP-IgE, anti-DNP-IgG1, anti-DNP-IgG2a, and the levels of total IgE, total IgG1 and total IgG2a in the plasma were measured by ELISA.

spleen whole cells = assay: Cytokine production by Lipo-αGC in spleen whole cells; type: cell-based, C57BL/6 mouse
Procedure: as §1

type I diabetes model = conditions: administered to NOD mice; cited from earlier work
NKT cells = conditions: cited from earlier work
spleen CD4+ T cells = assay: T cell activation ability using BDF1 mice (MTT proliferation of spleen CD4+ T cells); type: cell-based; conditions: 2 μg/mouse intraperitoneal, all DNP-OVA concentrations examined, 48 hours
Procedure: Saline, α-GalCer, Lipo-(−) or Lipo-αGC (2 μg/mouse) was intraperitoneally administered in BDF1 mice, after 3 days, which were primarily immunized with DNP-OVA and alum. After 7 days, the spleen was removed, and CD4^+ T cells were prepared using magnetic microbeads (Miltenyi). Subsequently, antigen presenting cells were prepared by irradiating spleen whole cells from the normal BDF1 mouse with radiation of 20 Gy. The CD4^+ T cells at 2×10^5 and the antigen presenting cells at 2×10^5 pulsed with DNP-OVA suspended in 200 μL of the medium were placed in one well of the 96-well U bottom culture plate, and cultured in the incubator containing 5% CO2 at 37° C. After 48 hours, cell proliferation was assayed by MTT method (Promega #G4000).

[5] = tested on: spleen dendritic cells (CD45RB/CD11c); assay: Analysis of dendritic cells in spleen of administered mice by flow cytometry; type: in vivo, BALB/c mice; conditions: 2 μg/mouse intraperitoneal, after 3 days
Procedure: Saline, α-GalCer, Lipo-(−) or Lipo-αGC (2 μg/mouse) was intraperitoneally administered in BALB/c mice, and after 3 days, the spleen was removed. Collagenase D (1 mg/mL, Roche) was injected into the spleen, which was then incubated in the CO2 incubator for 45 minutes. Subsequently, cells were collected from the spleen, suspended in 3 mL of HistoDenz (14.1%, SIGMA-Aldrich), and then the X-VIVO 15 medium (CAMBREX Bio Science Walkerville, Inc.) containing 50 μM 2-mercaptoethanol (2ME) was overlaid thereon. After centrifuging at 1,500 rpm for 5 minutes, the cells in the intermediate layer were collected. The cells were washed with the X-VIVO 15 medium containing 50 μm 2ME and 10% FCS, and suspended in phosphate buffered saline (PBS) containing 0.5% FCS. Biotinylated anti-CD3, -CD11b, -CD19, -CD49b, -Gr-1, -TER-119 and -B220 antibodies (all from BD Bioscience Pharmingen) were added to the cell suspension. The cells were incubated at 10° C. for 20 minutes, then washed once with PBS containing 0.5% FCS, and subsequently streptoavidin (SA)-conjugated magnetic beads (Miltenyi) were added thereto. […] The resulting cells were stained with PE-labeled anti-CD11c antibody (BD Bioscience Pharmingen) and APC-labeled anti-CD45RB antibody (BD Bioscience Pharmingen), and analyzed by flow cytometry. […]

IgE antibody production [6] = conditions: administered to C57BL/6 mice; cited from earlier work
spleen CD11c+ DC = assay: In vitro activity of ligand-containing liposome for dendritic cells: cytokine production; type: cell-based, BALB/c or C57BL/6 mouse; conditions: liposome composition 1 μg/mL, 48 hours, ELISA
Procedure: Collagenase D (1 mg/mL, Roche) was injected into spleen from BALB/c or C57BL/6 mouse, which was then incubated in a CO2 incubator for 45 minutes. Subsequently, cells were collected from the spleen, suspended in 3 mL of HistoDenz (14.1%, SIGMA), and then X-VIVO 15 (Takara Bio) containing 50 μM 2-mercaptoethanol (2ME) was overlaid thereon. After centrifuging at 1,500 rpm for 5 minutes, the cells in an intermediate layer were collected and incubated in X-VIVO 15 medium containing 50 μM 2ME, 0.5% fetal calf serum and 20 ng/mL rmGM-CSF (Pharmingen) in the CO2 incubator for one and a half hours. After pipetting gently, the suspended cells were removed, the X-VIVO 15 medium containing 50 μM 2ME, 0.5% fetal calf serum and 20 ng/mL rmGM-CSF (Pharmingen) was added, and the cells were incubated in the CO2 incubator for 18 hours. The suspended cells were collected, and the cells bound to anti-CD11c antibody-magnetic microbeads (Miltenyi) were collected to render spleen CD11c^+ DC. The CD11c^+ DC at 1×10^4 cells were suspended in 200 μL of RPMI medium containing 10% fetal calf serum in a 96-well round bottom microtiter plate, the liposome composition at a final concentration of 1 μg/mL was added thereto, and the plate was incubated in the incubator containing 5% CO^2 at 37° C. After 48 hours, culture supernatants were collected, and levels of IFN-α, IL-10 and IL-12 were measured by ELISA (FIGS. 1 and 2). The levels of IL-10 and IFN-α were high whereas the levels of IL-12 were low in Lipo-β and Lipo-Imq groups. Conversely, in Lipo-β-CpG and Lipo-Imq-CpG groups, the levels of IL-10 and IFNα were low whereas the levels of IL-12 were high. […] In the same evaluation method, the production levels of IL-10 in CD11c^+ DC by Lipo-Imq-βGC were measured.

[7] = tested on: immunopotentiation and anti-tumor effects; conditions: cited from earlier work
IgE = conditions: patients with atopic asthma; cited from earlier work
[8] = in the presence of anti-CD1d neutralization antibody 10 μg/mL

Sequence of IgE (P01854 1-425 limits assumed): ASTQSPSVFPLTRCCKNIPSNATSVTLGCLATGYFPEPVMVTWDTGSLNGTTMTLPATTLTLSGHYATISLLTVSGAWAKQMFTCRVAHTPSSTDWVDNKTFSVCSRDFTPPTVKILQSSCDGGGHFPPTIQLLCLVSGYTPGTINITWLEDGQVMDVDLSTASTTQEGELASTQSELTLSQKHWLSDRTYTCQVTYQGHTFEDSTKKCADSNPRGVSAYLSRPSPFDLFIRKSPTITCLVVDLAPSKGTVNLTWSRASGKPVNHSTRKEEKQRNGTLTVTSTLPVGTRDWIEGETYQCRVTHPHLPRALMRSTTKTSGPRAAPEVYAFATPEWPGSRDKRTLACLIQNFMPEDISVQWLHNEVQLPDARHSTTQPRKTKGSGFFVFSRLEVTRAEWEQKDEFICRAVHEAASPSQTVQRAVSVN

## CCCCCCCCCCCCCCCCCCCCCCCCCC(=O)N[C@@H](CO[C@H]1O[C@H](CO)[C@H](O)[C@H](O)[C@H]1O)[C@H](O)[C@H](O)CCCCCCCCCCCCCC [α-GalCer, α-Galactosyl ceramide]
Antibody production [1]
  inhibitory effect on the antibody production: no inhibitory effect
IgE antibody production [2]
  production of IgE antibody: not inhibited
[3]
  IFN-γ in the culture supernatant: not detected
  IL-4 in the culture supernatant: not detected
  IL-10 in the culture supernatant: not detected
Antibody production [4]
  changes of total IgG1, Lipo-αGC group versus α-GalCer or Lipo-(−) group: nearly equivalent
  changes of total IgG2a, Lipo-αGC group versus α-GalCer or Lipo-(−) group: nearly equivalent
Spleen whole cells; 100 ng/mL, 2 days, ELISA
  level of IFN-γ in culture supernatant, Lipo-αGC group versus αGalCer group: equivalent
  level of IL-4 in culture supernatant, Lipo-αGC group versus αGalCer group: equivalent
Spleen whole cells; [8]
  IFN-γ in the culture supernatant: not detected
  IL-4 in the culture supernatant: not detected
  IL-10 in the culture supernatant: not detected
Type I diabetes model
  symptoms in type I diabetes model: symptomatic improvement was observed
NKT cells
  cytokine production of both IFN-γ and IL-4: induces
Spleen CD4+ T cells
  proliferation of CD4+ T cells in response to DNP-OVA: highly proliferated
[5]
  number of CD45RBlowCD11chigh cells in the spleen: more than in the mouse administered with Lipo-αGC
  ratio of CD45RBhighCD11clow cells versus ratio of CD45RBlowCD11chigh cells: reversed
IgE antibody production [6]
  production of IgE antibody induced by DNP-OVA and alum: inhibited

## ceramide β-D-galactoside [β-GalCer]
Spleen CD11c+ DC
  level of IFN-α in culture supernatant: not detected or was very low
  level of IL-10 in culture supernatant: not detected or was very low
  level of IL-12 in culture supernatant: not detected or was very low
[7]
  activity compared with immunopotentiation and anti-tumor effects of α-galactosyl ceramide compound: much lower activity

## β-glycosyl ceramide
[7]
  activity compared with immunopotentiation and anti-tumor effects of α-galactosyl ceramide compound: much lower activity

## rhuMAb-E25: humanized anti-IgE antibody (Genentech Inc.)
IgE
  effectiveness in clinical trials: highly effective
